{"source": "paper PMC3542833", "about": "(Journal of the American Chemical Society, 2012)", "key": {"tubulin [1]": {"test_system": "tubulin", "assay": "tubulin assembly assay", "type": "biochemical", "settings": "read-out: Inhibition of Tubulin Assembly IC50±SD; enantiopure analogues"}, "tubulin [2]": {"test_system": "tubulin", "assay": "inhibition of colchicine binding", "settings": "5 μM inhibitor; enantiopure analogues"}, "NCI-60": {"test_system": "NCI-60", "assay": "NCI 60-cell screen", "type": "cell-based", "settings": "read-out: NCI-60 Mean GI50; mean over NCI-60 panel; enantiopure analogues"}, "tubulin [3]": {"test_system": "tubulin", "settings": "previous finding; ref 5a; cited from earlier work"}}}
{"substance": "(+)-chamaecypanone C [(+)-2]", "values": [{"measurement": "IC50", "setting": "tubulin [1]", "value": "2.2 ± 0.3", "unit": "µM"}, {"measurement": "% Inhibition of Colchicine Binding ± SD", "setting": "tubulin [2]", "value": "30±4.0", "unit": "%"}, {"measurement": "GI50", "setting": "NCI-60", "value": 0.28, "unit": "µM"}, {"measurement": "activity of chamaecypanone C enantiomers (in words)", "setting": "tubulin [3]", "value": "active"}]}
